For the test, the target named is T1, PKR in ex vivo red blood cells from healthy individuals (Homo sapiens, UniProt P30613).
T1 construct: endogenous in cells; host or cells: human red blood cells isolated from fresh peripheral blood of healthy individuals
T1 sequence (P30613 whole entry): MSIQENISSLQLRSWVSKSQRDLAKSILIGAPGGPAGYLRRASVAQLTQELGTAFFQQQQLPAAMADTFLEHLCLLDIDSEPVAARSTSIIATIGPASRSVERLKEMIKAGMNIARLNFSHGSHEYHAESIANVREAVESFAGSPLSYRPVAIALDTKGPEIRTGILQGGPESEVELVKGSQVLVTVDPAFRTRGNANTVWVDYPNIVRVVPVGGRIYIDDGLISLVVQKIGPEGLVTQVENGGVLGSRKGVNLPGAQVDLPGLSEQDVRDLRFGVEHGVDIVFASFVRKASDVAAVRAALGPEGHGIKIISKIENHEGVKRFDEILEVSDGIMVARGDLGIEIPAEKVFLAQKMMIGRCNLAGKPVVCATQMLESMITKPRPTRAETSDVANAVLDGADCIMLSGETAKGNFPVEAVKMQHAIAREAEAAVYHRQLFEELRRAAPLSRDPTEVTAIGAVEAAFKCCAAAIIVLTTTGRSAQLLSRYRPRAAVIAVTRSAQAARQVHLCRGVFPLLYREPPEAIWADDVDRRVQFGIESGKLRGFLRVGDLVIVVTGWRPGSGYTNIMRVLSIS
The test is described as follows: ex vivo pyruvate kinase (PKR) activity experiment, red blood cells of healthy individuals. Type of test: cell-based. The note with it: 3 hours co-cultivation. Here is the method:
To test the effects of the compound of the present disclosure on PKR activation in ex vivo red blood cells from healthy individuals and patients with thalassemia.
• i. 5 g of glucose, 85 mg of adenine, and 2.625 g of mannitol were weighed and added into a 50 mL centrifuge tube. 40 mL of PBS was added to dissolve (sonicate for 30 minutes until completely dissolved). The solution was filtered through a 0.22 µm filter, then added to 460 mL of sterile PBS and mixed thoroughly.
• i. Fresh human peripheral blood was collected. K2EDTA was used as the anticoagulant. 1 part anticoagulant with 9 parts blood was mixed, then centrifuged at 500 g for 10 minutes at room temperature to remove the plasma. • ii. Packed red blood cells: 1.5 volumes of PBS were added, then centrifuged at 2000 ×g for 5 minutes at room temperature. After centrifugation, the supernatant was removed. This step was repeated twice. • iii. Diluted red blood cells: 1.5 volumes of PBS were added, then resuspended and mixed thoroughly. • iv. The diluted red blood cells were slowly added to 0.5 volume of 70% isotonic solution (e.g., 7.5 mL of diluted red blood cells + 3 mL of 70% isotonic solution Percoll) and centrifuged at 4000 ×g for 20 minutes at 4°C. • v. The supernatant was removed. The red blood cells at the bottom were washed once with 4-5 mL of PBS to elute the Percoll gel, and then centrifuged at 2000 ×g for 5 minutes at room temperature. • vi. The supernatant was removed. The red blood cells were counted and then diluted in AGAM medium containing 10% FBS to a density of 2 × 10^8 cells/mL for storage at 4°C.
i. The red blood cells were seeded into a 96-well plate at a uniform density of 1 × 10^7 cells/mL, with 100 µL per well. The test compounds (dissolved in DMSO) were diluted and added to the cell culture medium, resulting in final compound concentrations of 3000, 1000, 300, 100, 10, 3, and 1 nM (with 1% DMSO). The cells and compounds were co-cultivated for 3 hours in a 37°C incubator with 5% CO2. Subsequently, the plate was centrifuged at 2000 g for 20 minutes, and the supernatant was discarded. 100 µL of red blood cell lysis buffer was added to the cell pellet, vortexed for 20 minutes, and centrifuged at 4000 g for 5 minutes. The supernatant was collected for analysis. ii. The reaction system was prepared according to the kit instructions (shown as the table below), 10 µL of the reaction system was added to each well of a 384-well plate, and 10 µL of red blood cell lysis buffer was took and mixed well (20 µL reaction system).
iii. A black, transparent-bottomed 384-well plate was placed in a microplate reader to measure fluorescence at 540/590 nm. The fluorescence was read every 2 minutes for 1 hour.
i. The Slope value was calculated over the assay time. Compound activation percentage was calculated using the 1% DMSO well as the control well. Activation percentage = (Slope of compound well / Slope of control well) × 100% ii. Dose-response curve was fit using the logarithmic compound concentration on the X-axis and the percent activation percentage on the Y-axis, the log(agonist) vs. response - variable slope function in GraphPad Prism 5 was used to determine the AC50 value for each compound on PKR activity. Y = min + (max−min)/(1+10^(∧)((LogAC50−X)×Hillslope)). [formula] The PKR agonist effects of the compound of the present disclosure on ex vivo red blood cells from healthy individuals and thalassemia patients were determined using the above assay. The AC50 values measured on ex vivo red blood cells from healthy individuals are as follows (A represents 0-100 nM, B represents 101-300 nM, and C represents 300-1000 nM): […]
The molecule `O=C([C@H](CO)c1ccccc1)N1CC(=C2CN(S(=O)(=O)c3cnc4c(c3)OCCO4)C2)C1` [Compound 1, (S)-1-(1'-((2,3-dihydro-[1,4]dioxino[2,3-b]pyridin-7-yl)sulfonyl)-1',4'-dihydro-2H,2'H-[3,3'-diazetidinylidene]-1(4H)-yl)-3-hydroxy-2-phenylpropan-1-one] registered a half-maximal activity concentration (AC50) of 101 to 300 nM.
As for `CN1CCN(c2cccc(C(O)C(=O)N3CC(=C4CN(S(=O)(=O)c5ccc6ncsc6c5)C4)C3)c2)CC1` (stereo not drawn) [Compound 43, 1-(1'-(benzo[d]thiazol-6-ylsulfonyl)-1',4'-dihydro-2H,2'H-[3,3'-diazetidinylidene]-1(4H)-yl)-2-hydroxy-2-(3-(4-methylpiperazin-1-yl)phenyl)ethan-1-one], the AC50 was in the range of 101 to 300 nM.
Molecule `O=C(C(CO)C1CCCCC1)N1CC(=C2CN(S(=O)(=O)c3ccccn3)C2)C1` (stereo not drawn) [Compound 90, 2-cyclohexyl-3-hydroxy-1-(1'-(pyridin-2-ylsulfonyl)-1',4'-dihydro-2H,2'H-[3,3'-diazetidinylidene]-1(4H)-yl)propan-1-one] had an AC50 of 300 to 1000 nM.
Then `O=C([C@H](CO)c1ccccc1)N1CC(=C2CN(S(=O)(=O)c3ccc(F)cc3)C2)C1` [Compound 10], with under 100 nM; and `Cn1cnc2ccc(S(=O)(=O)N3CC(=C4CN(C(=O)[C@H](CO)c5ccccc5)C4)C3)cc21` [Compound 63, (S)-3-hydroxy-1-(1'-((1-methyl-1H-benzimidazol-6-yl)sulfonyl)-1',4'-dihydro-2H,2'H-[3,3'-diazetidinylidene]-1(4H)-yl)-2-phenylpropan-1-one], with 300 to 1000 nM.
Then `O=C([C@H](CO)c1ccccc1)N1CC(=C2CN(S(=O)(=O)c3ccc(OC(F)F)c(F)c3)C2)C1` [Compound 11], with under 100 nM.
For `O=C(C(CO)c1ccc(C(F)F)cc1)N1CC(=C2CN(S(=O)(=O)c3ccccn3)C2)C1` (stereo not drawn) [Compound 71, 2-(4-(difluoromethyl)phenyl)-3-hydroxy-1-(1'-(pyridin-2-ylsulfonyl)-1',4'-dihydro-2H,2'H-[3,3'-diazetidinylidene]-1(4H)-y 1)propan-1-one] the value was 101 to 300 nM.
The molecule `O=C(N1CC(=C2CN(S(=O)(=O)c3ccc(OC(F)F)cc3)C2)C1)C1(c2ccccc2)CCOC1` (stereo not drawn) [Compound 37, (1'-((4-(difluoromethoxy)phenyl)sulfonyl)-1',4'-dihydro-2H,2'H-[3,3'-diazetidinylidene]-1(4H)-yl)(3-phenyltetrahydrofuran-3-yl)methanone] registered a half-maximal activity concentration (AC50) of 300 to 1000 nM.
For the molecule `O=C(C(CO)c1ccc(F)cc1)N1CC(=C2CN(S(=O)(=O)c3ccc4c(c3)OC(F)(F)O4)C2)C1` (stereo not drawn) [Compound 36, 1-(1'-((2,2-difluorobenzo[d][1,3]dioxolan-5-yl)sulfonyl)-1',4'-dihydro-2H,2'H-[3,3'-diazetidinylidene]-1(4H)-yl)-2-(4-fluorophenyl)-3-hydroxypropan-1-one], the AC50 is under 100 nM.
Then `O=C([C@H](CO)c1ccc(F)cc1)N1CC(=C2CN(S(=O)(=O)c3ccc4ncsc4c3)C2)C1` [Compound 25, (S)-1-(1'-(benzo[d]thiazol-6-ylsulfonyl)-1',4'-dihydro-2H,2'H-[3,3'-diazetidinylidene]-1(4H)-yl)-2-(4-fluorophenyl)-3-hydroxypropan-1-one], with 300 to 1000 nM; and `O=C([C@H](CO)c1ccccc1)N1CC(=C2CN(S(=O)(=O)c3ccc4ncsc4c3)C2)C1` [Compound 3, (S)-1-(1'-(benzo[d]thiazol-6-ylsulfonyl)-1',4'-dihydro-2H,2'H-[3,3'-diazetidinylidene]-1(4H)-yl)-3-hy droxy-2-phenylpropan-1-one], with 101 to 300 nM.
Then `O=C(C(CO)c1ccc(F)c(F)c1)N1CC(=C2CN(S(=O)(=O)c3ccccn3)C2)C1` (stereo not drawn) [Compound 61, 2-(3,4-difluorophenyl)-3-hydroxy-1-(1'-(pyridin-2-ylsulfonyl)-1',4'-dihydro-2H,2'H-[3,3'-diazetidinylidene]-1(4H)-yl)propan-1-one], with 101 to 300 nM.

Usually AC50 stands for the midpoint of the concentration-response curve, whichever way the signal moves. Higher therefore signals weaker potency.

The values are drawn from patent EP4721737A1, “USE OF PHARMACEUTICAL COMPOSITION COMPRISING COMPOUND HAVING BIS(AZANYLYLIDENE) SULFONYL STRUCTURE FOR TREATING ANEMIA-RELATED DISEASES” (Scinnohub Pharmaceutical Co., Ltd., priority 2023, dated 2024).
